Marks after values point to notes of the source that are not given here. Peptide text beside a SMILES is read from it. * marks the point of attachment. X64 = O=C1C=CC(=O)N1c1cccc(CCCCCCCCCC(=O)*)c1; X68 = O=C1C=CC(=O)N1c1ccccc1CCCCCCCCCCCC(=O)*; X52 = O=C1C=CC(=O)N1c1ccccc1CCCCCCCC(=O)*
Tests used:
[1] = system: human retinal capillary endothelial cells (HRCECs); assay: MTT proliferation inhibition on HRCECs; assay type: cell-based; conditions: 48 h; for A570 nm-A630 nm: mean±SD
Procedure: An MTT method was used to detect the inhibitory activity of the angiogenesis inhibitor polypeptide on proliferation of HRCECs. HRCECs were digested and collected with trypsin after being cultured in an incubator at 37° C. with 5% CO2 to a density of 90% or more. The cells were resuspended with a culture solution and counted under a microscope, the cell concentration was adjusted to 3.0×10^4 cells/mL, and the cell suspension was inoculated into a 96-well plate at 100 μL/well, and cultured overnight in an incubator at 37° C. with 5% CO2. After the cells were completely adhered to the wall, cells with the addition of the angiogenesis inhibitor polypeptide were used as administration groups, cells with the addition of Avastin were used as a positive control group, and cells with the addition of culture solution without any drugs were used as a blank control group. The cells were diluted to respective predetermined concentrations with the culture solution. The diluent were added into 96-well plates respectively at 100 μL per well, and the cells were cultured at 37° C. for 48 h in an incubator with 5% CO2. 20 μL of 5 mg/mL MTT was added into each well of the 96-well plate, and the cultivation was continued for 4 h. The culture medium was removed, and 100 μL of DMSO was added to each well for dissolution. The absorbance was measured at a detection wavelength of 570 nm and a reference wavelength of 630 nm using a microplate reader, and the PIR was calculated by the formula as follows:
PIR (%)=1−administration group/negative group
The experiment was repeated independently three times. The results were expressed as mean±SD, and statistical T test was conducted. *P<0.05 indicates significant difference, and **P<0.01 indicates extremely significant difference.

[2] = system: carrageenan-induced toe swelling; assay: Carrageenan-induced toe swelling in rats; assay type: in vivo; conditions: SD rats; for Swelling degree 1 h: 1 h after carrageenan; for Swelling degree 3 h: 3 h after carrageenan; for Swelling degree 5 h: 5 h after carrageenan; for Swelling degree 7 h: 7 h after carrageenan
Procedure: The rats were injected once a day, and the model group was given the same volume of normal saline for 3 d and fed normally. […] The foot swelling degree was calculated according to the following formula: foot swelling degree (mL)=foot volume after inflammation-foot volume before inflammation. The number of milliliters of overflow liquid was recorded (method: a ballpoint pen is used to circle the protruding point of the right joint as a measurement mark, and the right hind feet of each rat are sequentially placed into the volume measurer, so that the hind limbs are exposed outside the barrel, and the immersion depth is at the coincidence of the circle and the liquid level. After the foot enters the liquid, the liquid level rises, and the volume of overflow liquid is the volume of the right hind foot of the rat, and the normal volume of the right hind foot of each rat is measured in sequence).

splenic lymphocytes = assay: Proliferation of splenic lymphocytes in mice (ConA, MTT); assay type: cell-based; conditions: ConA-stimulated mouse splenic lymphocytes, 48 h
Procedure: Spleens of mice were taken out under aseptic conditions, washed with blank 1640 culture medium 3 times, ground with a 5 mL syringe core, filtered with a 200-mesh sieve, made into a single cell suspension. The suspension was centrifuged (1000 rpm×5 min), and supernatant was removed. Red blood cells were lysed by Tris-NH4Cl, and placed in ice water bath for 4 min and centrifuged (1000 rpm×5 min). The supernatant was removed, and the cells were washed twice with sterile PBS. Finally, RPMI 1640 culture solution (5 mL) containing 10% calf serum was added to suspend the cells. The cells were counted and the cell concentration was adjusted to 5×10^6 cells/mL, and the cells were cultured in a 96-well culture plate.
Blank control group, concanavalin A (ConA) group and dexamethasone (Dex) group were set in the experiment, and polypeptide X1-X90 groups were set as test groups. After 100 μL of splenic lymphocytes suspension per well was added into each group, 100 μL of blank 1640 culture solution was added into the blank control group, ConA was added into the ConA group, Dex was added into the Dex group, and ConA was added into the test groups on the basis of adding different concentrations of polypeptides X1-X90. The cells were static cultured at 37° C. in a cell incubator for 48 h. After the cultivation was completed, 20 μL of MTT was added to each well, and the cultivation was continued for 4 h. Finally, all the solutions in each well were discarded. 100 μL DMSO was added to each well and shaken, and the OD value at 570 nm was detected with a microplate reader. Five parallel experiments were set in each well.

[3] = system: choroidal neovascularization; assay: Choroidal neovascularization in rats (laser photocoagulation, FFA); assay type: in vivo; conditions: BN rats
Procedure: 6-8 weeks male BN rats were fully anesthetized by intraperitoneal injection of 846 compound anesthetic with a concentration of 0.5 mL/kg. Compound tropicamide eye drops were used once 5 min before laser photocoagulation to fully dilate the pupils of both eyes. The animals were fixed and subjected to krypton laser photocoagulation equidistantly around an optic disc with the aid of a −53.00D corneal contact lens at a distance of 2PD from the optic disc. A total of 8 photocoagulation spots were obtained. The laser wavelength was 647.1 nm, the power was 350 mW, and the diameter and time of the photocoagulation spots were 50 μm and 0.05 s respectively. Fundus photography was performed immediately after photocoagulation. FFA, histopathology and transmission electron microscopy were performed on the days 3, 7, 14, 21 and 28 after photocoagulation respectively.
Through fundus photography and FFA examination, it was confirmed that the fluorescein leakage of the photocoagulation spot reached its peak on day 21 after photocoagulation. At the same time, histopathological examination was carried out.
Rats with successful modeling were randomly grouped, with 5 rats in each group. The groups were marked as a negative control group and X1-X90 treatment groups respectively. The rats were injected with normal saline and X1-X90 (the doses of X1-X90 were each 0.05 μM) in the vitreous chamber once a day for 1 week. FFA examination was carried out 3 days, 7 days, 14 days and 28 days after administration.

[4] = Half-lives and pharmacokinetic parameters of polypeptides vs HM-1; conditions: in vivo; for half-life: T1/2β (half-life)
[5] = day 3 after administration, total light spot number was 297, 0.05 μM in the vitreous chamber once a day for 1 week
[6] = day 7 after administration, total light spot number was 186, 0.05 μM in the vitreous chamber once a day for 1 week
[7] = day 14 after administration, total light spot number was 137, 0.05 μM in the vitreous chamber once a day for 1 week
[8] = day 28 after administration, total light spot number was 69, 0.05 μM in the vitreous chamber once a day for 1 week

SMILES	Inhibition rate (%) ([1]; dose 0.05 μM)	A570 nm-A630 nm ([1]; dose 0.05 μM)	Inhibition rate (%) ([1]; dose 0.1 μM)	A570 nm-A630 nm ([1]; dose 0.1 μM)	Inhibition rate (%) ([1]; dose 0.2 μM)	A570 nm-A630 nm ([1]; dose 0.2 μM)	Swelling degree 1 h ([2]; 2.0 mg/kg once a day for 3 d)	Swelling degree 3 h ([2]; 2.0 mg/kg once a day for 3 d)	Swelling degree 5 h ([2]; 2.0 mg/kg once a day for 3 d)	Swelling degree 7 h ([2]; 2.0 mg/kg once a day for 3 d)	Swelling degree 1 h ([2]; 4.0 mg/kg once a day for 3 d)	Swelling degree 3 h ([2]; 4.0 mg/kg once a day for 3 d)	Swelling degree 5 h ([2]; 4.0 mg/kg once a day for 3 d)	Swelling degree 7 h ([2]; 4.0 mg/kg once a day for 3 d)	A570 nm/A630 nm (splenic lymphocytes; polypeptide dose 0.05 μM)	Inhibition rate (%) (splenic lymphocytes; polypeptide dose 0.05 μM)	A570 nm/A630 nm (splenic lymphocytes; polypeptide dose 0.1 μM)	Inhibition rate (%) (splenic lymphocytes; polypeptide dose 0.1 μM)	A570 nm/A630 nm (splenic lymphocytes; polypeptide dose 0.2 μM)	Inhibition rate (%) (splenic lymphocytes; polypeptide dose 0.2 μM)	further results
C[C@H](NC(=O)CNC(=O)[C@H](CCCNC(=N)N)NC(=O)CCCCCCCCCc1cccc(N2C(=O)C=CC2=O)c1)C(=O)N[C@@H](CC(=O)O)C(=O)N[C@@H](CCCNC(=N)N)C(=O)N[C@@H](C)C(=O)NCC(=O)NCC(=O)NCC(=O)NCC(=O)N[C@@H](CCCNC(=N)N)C(=O)NCC(=O)N[C@@H](CC(=O)O)C(=O)O [X33] (X64-RGADRAGGGGRGD-OH)	42.66%*	0.7579 ± 0.03744	46.86%**	0.7024 ± 0.04477	62.24%*	0.4991 ± 0.04854	0.22 ± 0.13 mg	0.37 ± 0.11 mg	0.42 ± 0.17 mg	0.35 ± 0.13 mg	0.25 ± 0.14 mg	0.31 ± 0.13 mg	0.44 ± 0.19 mg	0.33 ± 0.18 mg	0.5669 ± 0.1137	16.06%	0.5297 ± 0.0479	21.57%	0.4492 ± 0.1069	33.49%	CNV Incidence (%) [3, 5]: 54.21%; Leakage Light spot number [3, 5]: 161; CNV Incidence (%) [3, 6]: 46.24%; Leakage Light spot number [3, 6]: 86; CNV Incidence (%) [3, 7]: 45.26%; Leakage Light spot number [3, 7]: 62; CNV Incidence (%) [3, 8]: 37.68%; Leakage Light spot number [3, 8]: 26; AUC(0-inf) [4]: 34000 ± 7620 ng·h/mL; MRT inf [4]: 60.8 ± 12 h; clearance [4]: 0.49 mL/min/kg; half-life [4]: 42.15 ± 0.26 h
C[C@H](NC(=O)CNC(=O)[C@H](CCCNC(=N)N)NC(=O)CCCCCCCc1ccccc1N1C(=O)C=CC1=O)C(=O)N[C@@H](CC(=O)O)C(=O)N[C@@H](CCCNC(=N)N)C(=O)N[C@@H](C)C(=O)NCC(=O)NCC(=O)NCC(=O)NCC(=O)N[C@@H](CCCNC(=N)N)C(=O)NCC(=O)N[C@@H](CC(=O)O)C(=O)O [X19] (X52-RGADRAGGGGRGD-OH)	51.03%*	0.6472 ± 0.01829	63.29%**	0.4852 ± 0.07133	64.71%*	0.4664 ± 0.01886	0.21 ± 0.13 mg	0.33 ± 0.15 mg	0.36 ± 0.17 mg	0.32 ± 0.12 mg	0.26 ± 0.11 mg	0.38 ± 0.17 mg	0.42 ± 0.15 mg	0.32 ± 0.18 mg	0.5093 ± 0.0372	24.59%	0.5027 ± 0.0814	25.57%	0.4978 ± 0.0481	26.30%	CNV Incidence (%) [3, 5]: 52.19%; Leakage Light spot number [3, 5]: 155; CNV Incidence (%) [3, 6]: 45.70%; Leakage Light spot number [3, 6]: 85; CNV Incidence (%) [3, 7]: 41.61%; Leakage Light spot number [3, 7]: 57; CNV Incidence (%) [3, 8]: 44.93%; Leakage Light spot number [3, 8]: 31; AUC(0-inf) [4]: 32200 ± 6970 ng·h/mL; MRT inf [4]: 57.6 ± 10.8 h; clearance [4]: 0.518 mL/min/kg; half-life [4]: 39.95 ± 0.28 h
C[C@H](NC(=O)CNC(=O)[C@H](CCCNC(=N)N)NC(=O)CCCCCCCCCCCc1ccccc1N1C(=O)C=CC1=O)C(=O)N[C@@H](CC(=O)O)C(=O)N[C@@H](CCCNC(=N)N)C(=O)N[C@@H](C)C(=O)NCC(=O)NCC(=O)NCC(=O)NCC(=O)N[C@@H](CCCNC(=N)N)C(=O)NCC(=O)N[C@@H](CC(=O)O)C(=O)O [X23] (X68-RGADRAGGGGRGD-OH)	45.59%*	0.7191 ± 0.07483	46.74%**	0.7043 ± 0.07872	48.91%*	0.6753 ± 0.00095	0.28 ± 0.17 mg	0.34 ± 0.19 mg	0.37 ± 0.11 mg	0.35 ± 0.18 mg	0.26 ± 0.16 mg	0.34 ± 0.19 mg	0.38 ± 0.13 mg	0.34 ± 0.17 mg	0.5946 ± 0.0378	11.96%	0.4982 ± 0.1212	26.24%	0.4363 ± 0.0933	35.40%	CNV Incidence (%) [3, 5]: 52.86%; Leakage Light spot number [3, 5]: 157; CNV Incidence (%) [3, 6]: 45.70%; Leakage Light spot number [3, 6]: 85; CNV Incidence (%) [3, 7]: 44.53%; Leakage Light spot number [3, 7]: 61; CNV Incidence (%) [3, 8]: 37.68%; Leakage Light spot number [3, 8]: 26; AUC(0-inf) [4]: 25600 ± 8510 ng·h/mL; MRT inf [4]: 45.8 ± 10.6 h; clearance [4]: 0.652 mL/min/kg; half-life [4]: 31.72 ± 0.25 h

Source: patent publication US20200270309A1, “MALEIMIDE GROUP-MODIFIED ANGIOGENESIS INHIBITOR HM-1 AND USE THEREOF” (NANJING ANJI BIOLOGICAL TECHNOLOGY CO., LTD, priority 2017, published 2020)
